Data published in patent publication US20260176289A1, “SMALL MOLECULE INHIBITORS OF KRAS PROTEINS” (Merck Sharp & Dohme LLC, priority 2022, published 2026).
Like-named read-outs stand apart in the source and are kept apart here.

Columns and labels:
KRAS-WT = KRAS-WT (Homo sapiens, UniProt P01116); assay: SOS-catalyzed nucleotide exchange assay (Procedure A, TR-FRET), KRAS-WT; format: biochemical
Procedure, shortened: (§1)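 Inhibitors stabilizing the Bodipy-GDP state are detected as retained TR-FRET from a preformed biotinylated RAS/Tb-streptavidin complex. They are preincubated 60 min at room temperature, then human SOS and 3 mM GTP are added. G12V runs 90 min at 1.25 nM RAS/160 nM SOS. G12C (3 nM), WT (1 nM) and NRAS (1.25 nM) run 60 min with 40 nM SOS.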

AsPC-1 cells = assay: Cellular phospho-ERK assay, AsPC-1 cells (homozygous KRAS-G12D); format: cell-based; conditions: Homo sapiens, read-out: AsPC1 pERK IC50
Procedure, shortened: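 10k–15k cells/well, o/n attach; cpd 2 h, 37 °C, 10-pt 1:3 from 30 μM final; lyse with protease/phosphatase inhibitors 30 min RT; multiplex SureFire p-ERK + total ERK; IC50 via 4PL on ratio.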

KRAS-G13D = KRAS-G13D (Homo sapiens, UniProt P01116, G13D); assay: SOS-catalyzed nucleotide exchange assay (Procedure A, TR-FRET), KRAS-G13D; format: biochemical
Excerpt: (§2) Procedure for SOS-Catalyzed Nucleotide Exchange Assay for KRAS-WT, G12C/D/V, G13D, HRAS, and NRAS (Procedure A)
(§3) Recombinant KRAS-G12C protein used in this assay has an additional triple mutation (C51S/C80L/C118S). Whereas KRAS-WT, G12D/V, G13D, HRAS and NRAS are in context of their WT protein sequence background. Specifically, the SOS-catalyzed nucleotide exchange assay utilizes a preformed TR-FRET complex containing a specific biotinylated RAS protein (KRAS-WT, G12C/V/D, G13D, HRAS, NRAS; described above) with Bodipy-GDP, and Terbium-streptavidin. Compounds are preincubated with this complex for 60 minutes. Subsequently, recombinant human SOS protein and unlabeled GTP are added to initiate the exchange reaction. Small molecule inhibitors stabilize the Bodipy-GDP complex whereas the untreated protein rapidly exchanges Bodipy-GDP for unlabeled GTP resulting in reduced TR-FRET signal.
(§4) To assemble the preformed TR-FRET complexes, each biotinylated RAS protein is diluted to 2 μM in an EDTA Buffer (20 mM HEPES pH 7.5, 50 mM sodium chloride, 10 mM EDTA, and 0.01% Tween) and incubated at room temperature for one hour. This mixture is then further diluted to 90 nM in an Assay Buffer (20 mM HEPES pH 7.5, 150 mM sodium chloride, 10 mM magnesium chloride, and 0.005% Tween) containing 15 nM of Terbium-Streptavidin (Invitrogen, catalog #PV3577) and 900 nM of Bodipy-GDP (Invitrogen, catalog #G22360) and incubated at room temperature for six hours. It should be noted that this preformed TR-FRET complex for each of the RAS protein were made ahead of time, aliquoted and stored at −80° C. until the day of the experiment.
(§5) Each test compound (10 mM stock in DMSO) is diluted in DMSO to make a final-10-point, 3-fold dilution and is acoustically dispensed into a 384-well assay plate (Corning, catalog #3820) using an Echo 550 (Labcyte). Each well of the assay plate receives 3 μL of a specific 3×RAS preformed TR-FRET complex and 3 μL of Assay Buffer and is incubated at room temperature for 60 minutes (preincubation time). Each well then receives 3 μL of 3×recombinant human SOS protein and GTP (Sigma, G8877) in Assay Buffer and is incubated at room temperature for 30 minutes (G13D), 60 minutes (KRAS WT/G12C/D, H/NRAS) or 90 minutes for G12V. The final reaction in each well of 9 μL consists of 3 mM GTP, specific Ras and SOS proteins in the following concentrations: KRAS-G12C/SOS=3 nM/40 nM, KRAS-WT and G12D/SOS=1 nM/40 nM, KRAS-G12V/SOS=1.25 nM/160 nM. KRAS-G13D/SOS=1.25 nM/0 nM, HRAS and NRAS=1.25 nM/40 nM.
(§6) The time-resolved fluorescence resonance energy transfer (TR-FRET) signal is measured on an Envision (PerkinElmer) plate reader: Excitation filter=340 nm; emission 1=495 nm; emission2=520 nm; dichroic mirror=D400/D505; delay time=[…]. The signal of each well is determined as the ratio of the emission at 520 nm to that at 495 nm. Percent effect of each well is determined after normalization to control wells containing DMSO (no effect) or a saturating concentration of inhibitor (max effect). The apparent effect as a function of compound concentration is fit to a four-parameter logistic equation.

KRAS-G12V = KRAS-G12V (Homo sapiens, UniProt P01116, G12V); assay: SOS-catalyzed nucleotide exchange assay (Procedure A, TR-FRET), KRAS-G12V; format: biochemical
Procedure, shortened: as §1

KRAS-G12D = KRAS-G12D (Homo sapiens, UniProt P01116, G12D); assay: SOS-catalyzed nucleotide exchange assay (Procedure A, TR-FRET), KRAS-G12D; format: biochemical
Procedure, shortened: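 Signal ratio (520/495 nm, excitation 340 nm) reports Bodipy-GDP retention on biotinylated RAS after SOS-catalyzed exchange with 3 mM GTP. SOS was 40 nM, except 160 nM for G12V. Room-temperature exchange lasted 60 min (90 min for G12V), following a 60 min compound preincubation.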

[1] = biological target: KRAS-G12C (C51S/C80L/C118S) (Homo sapiens, UniProt P01116, C118S/C51S/C80L/G12C); assay: SOS-catalyzed nucleotide exchange assay (Procedure A, TR-FRET), KRAS-G12C; format: biochemical
Excerpt: as §2, §3, §4, §5, §6

[2] = nucleotide exchange, read-out: KRAS WT GNE IC50
[3] = ASPC1, 2 h, 2 hours compound incubation
[4] = nucleotide exchange, Procedure A, read-out: KRAS G13D GNE IC50
[5] = nucleotide exchange, read-out: KRAS G12V GNE IC50
[6] = nucleotide exchange, read-out: KRAS G12D GNE IC50
[7] = nucleotide exchange, Procedure A, read-out: KRAS G12C GNE IC50

Chain of KRAS-G13D (P01116 with tags, fused parts or gaps isoform P01116-2 G13D): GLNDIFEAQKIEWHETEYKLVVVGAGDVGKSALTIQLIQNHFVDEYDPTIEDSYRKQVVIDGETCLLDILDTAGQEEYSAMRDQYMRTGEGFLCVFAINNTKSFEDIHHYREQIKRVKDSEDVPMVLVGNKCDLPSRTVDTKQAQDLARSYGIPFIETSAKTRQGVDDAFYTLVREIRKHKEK
Chain of KRAS-G12V (P01116 with tags, fused parts or gaps isoform P01116-2 G12V): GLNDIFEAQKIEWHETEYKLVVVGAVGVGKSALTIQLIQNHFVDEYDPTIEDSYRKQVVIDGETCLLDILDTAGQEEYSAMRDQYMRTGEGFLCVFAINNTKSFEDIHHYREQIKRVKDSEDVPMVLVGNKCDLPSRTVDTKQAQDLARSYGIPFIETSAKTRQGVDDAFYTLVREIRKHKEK
Chain of KRAS-G12C (C51S/C80L/C118S) (P01116 with tags, fused parts or gaps isoform P01116-2 G12C/C51S/C80L/C118S): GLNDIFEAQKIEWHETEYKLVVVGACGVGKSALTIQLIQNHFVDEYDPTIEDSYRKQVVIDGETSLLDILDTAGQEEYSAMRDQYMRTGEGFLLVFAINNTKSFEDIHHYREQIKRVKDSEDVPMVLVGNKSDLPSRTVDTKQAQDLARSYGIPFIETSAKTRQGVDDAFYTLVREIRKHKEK
Chain of KRAS-G12D (P01116 with tags, fused parts or gaps isoform P01116-2 G12D): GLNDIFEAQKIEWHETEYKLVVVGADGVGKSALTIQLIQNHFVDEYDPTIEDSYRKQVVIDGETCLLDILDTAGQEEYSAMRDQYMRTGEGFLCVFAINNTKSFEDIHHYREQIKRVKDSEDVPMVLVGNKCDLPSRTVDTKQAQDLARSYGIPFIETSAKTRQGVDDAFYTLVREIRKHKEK
Chain of KRAS-WT (P01116 with tags, fused parts or gaps isoform P01116-2): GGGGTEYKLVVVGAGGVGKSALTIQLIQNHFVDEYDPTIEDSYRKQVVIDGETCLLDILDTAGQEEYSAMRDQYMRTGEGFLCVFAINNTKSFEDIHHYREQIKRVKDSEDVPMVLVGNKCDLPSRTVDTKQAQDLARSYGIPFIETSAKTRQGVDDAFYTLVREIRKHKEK

SMILES	IC50 (KRAS-WT; [2]) [nM]	IC50 (AsPC-1 cells; [3]) [nM]	IC50 (KRAS-G13D; [4]) [nM]	IC50 (KRAS-G12V; [5]) [nM]	IC50 (KRAS-G12D; [6]) [nM]	IC50 [1, 7] [nM]	IC50 (AsPC-1 cells; ASPC1, 2 h, KRAS-G12D, 2 hours) [nM]	IC50 (KRAS-WT; KRAS WT GNE IC50, nucleotide exchange) [nM]	IC50 (AsPC-1 cells; ASPC1, KRAS-G12D, 2 hours) [nM]	IC50 (KRAS-G13D) [nM]	IC50 (KRAS-G12V; KRAS G12V GNE IC50, nucleotide exchange) [nM]	IC50 (KRAS-G12D; KRAS G12D GNE IC50, nucleotide exchange) [nM]	IC50 [1] [nM]
Cc1cc2[nH]ncc2c(-c2nccc3c2[se]c2nc(OC[C@@]45CCCN4C[C@H](F)C5)nc(N4CCOC[C@@](C)(O)C4)c23)c1C(F)(F)F [Ex-288, (6S)-4-(2-(((2R,7aS)-2-fluorotetrahydro-1H-pyrrolizin-7a(5H)-yl)methoxy)-8-(6-methyl-5-(trifluoromethyl)-1H-indazol-4-yl)pyrido[4′,3′:4,5]selenopheno[2,3-d]pyrimidin-4-yl)-6-methyl-1,4-oxazepan-6-ol]								69.1	374	50.7	25.9	34.6	22
Cc1cc2[nH]ncc2c(-c2nccc3c2sc2nc(OC[C@@]45CCCN4C[C@H](F)C5)nc(NC4(CO)COC4)c23)c1C(F)(F)F [Ex-185, (3-((2-(((2R,7aS)-2-fluoro-tetrahydro-1H-pyrrolizin-7a(5H)-yl)methoxy)-8-(6-methyl-5-(trifluoromethyl)-1H-indazol-4-yl)pyrido [4′,3′:4,5]thieno[2,3-d]pyr-imidin-4-yl)amino)oxetan-3-yl)methanol]	1370	4580	842	319	482	146							
Cc1cc2[nH]ncc2c(-c2nccc3c2sc2nc(OC[C@@]45CCCN4C[C@H](F)C5)nc(NC45CC(O)(C4)C5)c23)c1C(F)(F)F [Ex-187, 3-((2-(((2R,7aS)-2-fluoro-tetrahydro-1H-pyrrolizin-7a(5H)-yl)methoxy)-8-(6-methyl-5-(trifluorometh-yl)-1H-indazol-4-yl)pyrido [4′,3′:4,5]thieno[2,3-d]pyrimidin-4-yl)amino)-bicyclo[1.1.1]pentan-1-ol]	499	3570	223	170	390	72.6							
Cc1cc2[nH]ncc2c(-c2nccc3c2sc2nc(OC[C@@]45CCCN4C[C@H](F)C5)nc(NC4CCOC4)c23)c1C(F)(F)F (stereo partly drawn) [Ex-188, 2-(((2R,7aS)-2-fluoro-tetrahydro-1H-pyrrolizin-7a(5H)-yl)methoxy)-8-(6-methyl-5-(trifluoromethyl)-1H-indazol-4-yl)-N-(tetra-hydrofuran-3-yl)pyrido [4′,3′:4,5]thieno[2,3-d] pyrimidin-4-amine]	1860	3660	1250	753	4950	562							

More lines, main results first:

IC50 (KRAS-WT; [2]) [nM]	IC50 (AsPC-1 cells; [3]) [nM]	IC50 (KRAS-G13D; [4]) [nM]	IC50 (KRAS-G12V; [5]) [nM]	IC50 (KRAS-G12D; [6]) [nM]	IC50 [1, 7] [nM]	IC50 (AsPC-1 cells; ASPC1, 2 h, KRAS-G12D, 2 hours) [nM]	SMILES	IC50 (KRAS-WT; KRAS WT GNE IC50, nucleotide exchange) [nM]	IC50 (AsPC-1 cells; ASPC1, KRAS-G12D, 2 hours) [nM]	IC50 (KRAS-G13D) [nM]	IC50 (KRAS-G12V; KRAS G12V GNE IC50, nucleotide exchange) [nM]	IC50 (KRAS-G12D; KRAS G12D GNE IC50, nucleotide exchange) [nM]	IC50 [1] [nM]
184	560	172	65.3	69.3	362		Cc1cc2[nH]ncc2c(-c2nccc3c2sc2nc(OC[C@@]45CCCN4C[C@H](F)C5)nc(N4CCOC[C@@](C)(O)C4)c23)c1C1=CCCC1 [Ex-140, (6S)-4-(8-(5-(cyclo-pent-1-en-1-yl)-6-methyl-1H-indazol-4-yl)-2-(((2R,7aS)-2-fluorotetrahydro-1H-pyrrolizin-7a(5H)-yl)methoxy)pyrido [4′,3′:4,5]thieno[2,3-d]pyrimidin-4-yl)-6-methyl-1,4-oxaze-pan-6-ol]						
262		106	125	113	30.1	295	CN(C)C[C@@]1(COc2nc(N3CCOC[C@@](C)(O)C3)c3c(n2)oc2c(-c4c(C5CC5)c(Cl)cc5[nH]ncc45)nccc23)CC1(F)F [Ex-294, (6S)-4-(8-(6-chloro-5-cyclopropyl-1H-indazol-4-yl)-2-(((R)-1-((dimethylamino)methyl)-2,2-difluorocyclopropyl)meth-oxy)pyrido[4′,3′:4,5]furo[2,3-d]pyrimidin-4-yl)-6-methyl-1,4-oxazepan-6-ol]						
101		32.6	55	32	17.9	385	CC1(O)COCCN(c2nc(OCC34CCCN3CC(F)C4)nc3sc4c(-c5c(C6CC6)c(F)cc6[nH]ncc56)nccc4c23)C1 [Ex-47, (6S)-4-(8-(5-cyclopropyl-6-fluoro-1H-indazol-4-yl)-2-(((2R,7aS)-2-fluorotetrahydro-1H-pyrrolizin-7a(5H)-yl)methoxy)pyrido[4′,3′:4,5]thi-eno[2,3-d]pyrimidin-4-yl)-6-methyl-1,4-oxazepan-6-ol]						
603		308	134	175	76.9	2320	Cc1cc2[nH]ncc2c(-c2nccc3c2oc2nc(OC[C@]4(CN(C)C)CC4(F)F)nc(N4CCOC[C@@](C)(O)C4)c23)c1C(F)F [Ex-292, (6S)-4-(8-(5-(difluoromethyl)-6-methyl-1H-indazol-4-yl)-2-(((R)-1-((dimethylamino)methyl)-2,2-difluorocyclopropyl)meth-oxy)pyrido[4′,3′:4,5]furo[2,3-d]pyrimidin-4-yl)-6-methyl-1,4-oxazepan-6-ol]						
184		172	65.3	69.3	362	560	C/C=C(\C)c1c(C)cc2[nH]ncc2c1-c1nccc2c1sc1nc(OC[C@@]34CCCN3C[C@H](F)C4)nc(N3CCOC[C@@](C)(O)C3)c12 [Ex-65, (6S)-4-(8-(5-((E)-but-2-en-2-yl)-6-methyl-1H-indazol-4-yl)-2-(((2R,7aS)-2-fluorotetrahydro-1H-pyrrolizin-7a(5H)-yl)methoxy)pyrido[4′,3′:4,5]thi-eno[2,3-d]pyrimidin-4-yl)-6-methyl-1,4-oxazepan-6-ol]						
8020		5380	4930	9040	1970		Cc1nc2[nH]nc(C)c2c(-c2nccc3c4c(N5CCOC[C@@](C)(O)C5)nc(OC[C@@]56CCCN5C[C@H](F)C6)nc4n(C)c23)c1C(F)(F)F [Ex-15, (6S)-4-(8-(3,6-dimethyl-5-(trifluoromethyl)-1H-pyrazolo[3,4-b]pyridin-4-yl)-2-(((2R,7aS)-2-fluorotetrahydro-1H-pyrrolizin-7a(5H)-yl)methoxy)-9-methyl-9H-pyrido[4′,3′:4,5]pyrrolo[2,3-d]pyrimidin-4-yl)-6-methyl-1,4-oxazepan-6-ol]						
